Measured values reported in the NIST ThermoML archive (doi:10.1021/je700152c).

Assay: molar heat capacity at saturation pressure; xn = mol fraction of the nth substance listed

CCCCn1cc[n+](C)c1.Cc1ccc(S(=O)(=O)[O-])cc1 [1-butyl-3-methylimidazolium tosylate] + O
Settings	molar heat capacity [J/K/mol]
187.71 K, Metastable crystal, x1 = 0.83	257.58
188.37 K, Crystal, x1 = 0.37	129.48
189.01 K, Crystal, x1 = 0.3	108.8
189.44 K, Crystal, x1 = 0.83	237.24
189.61 K, Metastable crystal, x1 = 0.83	259.14
191.25 K, Crystal, x1 = 0.37	131.12
191.41 K, Crystal, x1 = 0.83	240.11
191.51 K, Metastable crystal, x1 = 0.83	260.97
191.66 K, Crystal, x1 = 0.3	109.86
193.36 K, Crystal, x1 = 0.83	244.28
193.41 K, Metastable crystal, x1 = 0.83	262.79
194.12 K, Crystal, x1 = 0.37	132.64
194.31 K, Crystal, x1 = 0.3	111.02
195.3 K, Crystal, x1 = 0.83	250.02
195.31 K, Metastable crystal, x1 = 0.83	264.88
196.95 K, Crystal, x1 = 0.3	112.29
196.98 K, Crystal, x1 = 0.37	134.15
197.21 K, Metastable crystal, x1 = 0.83	268.01
197.23 K, Crystal, x1 = 0.83	254.97
199.09 K, Metastable crystal, x1 = 0.83	272.44
199.14 K, Crystal, x1 = 0.83	258.88
199.58 K, Crystal, x1 = 0.3	113.66
199.84 K, Crystal, x1 = 0.37	135.92
201 K, Metastable crystal, x1 = 0.83	280.52
201.17 K, Crystal, x1 = 0.83	262.53
201.54 K, Crystal, x1 = 0.3	114.83
201.97 K, Crystal, x1 = 0.37	137.43
202.83 K, Crystal, x1 = 0.3	115.46
202.96 K, Metastable crystal, x1 = 0.83	287.56
203.32 K, Crystal, x1 = 0.83	264.88
203.36 K, Crystal, x1 = 0.37	138.57
204.12 K, Crystal, x1 = 0.3	115.99
204.75 K, Crystal, x1 = 0.37	139.08
204.92 K, Metastable crystal, x1 = 0.83	289.38
205.4 K, Crystal, x1 = 0.3	116.63
205.47 K, Crystal, x1 = 0.83	266.7
206.15 K, Crystal, x1 = 0.37	140.46
206.69 K, Crystal, x1 = 0.3	117.05
206.89 K, Metastable crystal, x1 = 0.83	290.69
207.55 K, Crystal, x1 = 0.37	141.22
207.62 K, Crystal, x1 = 0.83	268.53
207.98 K, Crystal, x1 = 0.3	117.58
208.85 K, Metastable crystal, x1 = 0.83	291.99
208.96 K, Crystal, x1 = 0.37	142.1
209.26 K, Crystal, x1 = 0.3	118
209.77 K, Crystal, x1 = 0.83	270.61
210.37 K, Crystal, x1 = 0.37	142.86
210.55 K, Crystal, x1 = 0.3	118.74
210.81 K, Metastable crystal, x1 = 0.83	293.03
211.79 K, Crystal, x1 = 0.37	143.62
211.84 K, Crystal, x1 = 0.3	119.27
211.92 K, Crystal, x1 = 0.83	272.7
212.77 K, Metastable crystal, x1 = 0.83	294.34
213.13 K, Crystal, x1 = 0.3	120.22
213.22 K, Crystal, x1 = 0.37	144.25
214.07 K, Crystal, x1 = 0.83	274.78
214.41 K, Crystal, x1 = 0.3	121.91
214.66 K, Crystal, x1 = 0.37	145.26
214.74 K, Metastable crystal, x1 = 0.83	295.64
215.69 K, Crystal, x1 = 0.3	123.6
216.09 K, Crystal, x1 = 0.37	146.27
216.21 K, Crystal, x1 = 0.83	276.87
216.7 K, Metastable crystal, x1 = 0.83	296.68
216.97 K, Crystal, x1 = 0.3	125.51
217.52 K, Crystal, x1 = 0.37	148.16
218.24 K, Crystal, x1 = 0.3	127.73
218.36 K, Crystal, x1 = 0.83	278.69
218.66 K, Metastable crystal, x1 = 0.83	297.99
218.93 K, Crystal, x1 = 0.37	150.81
219.5 K, Crystal, x1 = 0.3	130.37
220.33 K, Crystal, x1 = 0.37	154.98
220.5 K, Crystal, x1 = 0.83	280.78
220.62 K, Metastable crystal, x1 = 0.83	299.29
220.76 K, Crystal, x1 = 0.3	133.97
221.7 K, Crystal, x1 = 0.37	161.54
222 K, Crystal, x1 = 0.3	138.72
222.58 K, Metastable crystal, x1 = 0.83	300.59
222.65 K, Crystal, x1 = 0.83	282.87
223.04 K, Crystal, x1 = 0.37	170.5
223.23 K, Crystal, x1 = 0.3	144.64
224.35 K, Crystal, x1 = 0.37	182.11
224.44 K, Crystal, x1 = 0.3	151.62
224.54 K, Metastable crystal, x1 = 0.83	301.9
224.8 K, Crystal, x1 = 0.83	284.95
225.63 K, Crystal, x1 = 0.3	159.55
225.63 K, Crystal, x1 = 0.37	195.24
226.5 K, Metastable crystal, x1 = 0.83	303.2
226.79 K, Crystal, x1 = 0.3	169.18
226.88 K, Crystal, x1 = 0.37	210.13
226.96 K, Crystal, x1 = 0.83	286.78
227.92 K, Crystal, x1 = 0.3	180.91
228.08 K, Crystal, x1 = 0.37	225.52
228.46 K, Metastable crystal, x1 = 0.83	304.76
229.02 K, Crystal, x1 = 0.3	196.03
229.14 K, Crystal, x1 = 0.83	288.6
229.24 K, Crystal, x1 = 0.37	246.35
230.06 K, Crystal, x1 = 0.3	216.44
230.36 K, Crystal, x1 = 0.37	271.97
230.42 K, Metastable crystal, x1 = 0.83	306.33
231.05 K, Crystal, x1 = 0.3	243.4
231.35 K, Crystal, x1 = 0.83	290.43
231.41 K, Crystal, x1 = 0.37	306.67
231.97 K, Crystal, x1 = 0.3	279.14
232.38 K, Metastable crystal, x1 = 0.83	307.89
232.4 K, Crystal, x1 = 0.37	350.72
232.82 K, Crystal, x1 = 0.3	325.66
233.32 K, Crystal, x1 = 0.37	386.68
233.59 K, Crystal, x1 = 0.3	384.24
233.59 K, Crystal, x1 = 0.83	291.21
234.25 K, Crystal, x1 = 0.37	311.22
234.29 K, Crystal, x1 = 0.3	455.08
234.34 K, Metastable crystal, x1 = 0.83	309.46
234.92 K, Crystal, x1 = 0.3	526.56
235.39 K, Crystal, x1 = 0.37	181.61
235.5 K, Crystal, x1 = 0.3	534.91
235.86 K, Crystal, x1 = 0.83	290.16
236.15 K, Crystal, x1 = 0.3	325.13
236.31 K, Metastable crystal, x1 = 0.83	310.24
236.7 K, Crystal, x1 = 0.37	181.73
237.09 K, Crystal, x1 = 0.3	171.82
238 K, Crystal, x1 = 0.37	183.25
238.22 K, Crystal, x1 = 0.83	290.95
238.25 K, Crystal, x1 = 0.3	170.34
238.27 K, Metastable crystal, x1 = 0.83	311.54
239.3 K, Crystal, x1 = 0.37	184.76
239.4 K, Crystal, x1 = 0.3	171.4
240.23 K, Metastable crystal, x1 = 0.83	313.11
240.46 K, Crystal, x1 = 0.83	293.81
240.56 K, Crystal, x1 = 0.3	172.98
240.6 K, Crystal, x1 = 0.37	186.27
241.71 K, Crystal, x1 = 0.3	174.78
241.9 K, Crystal, x1 = 0.37	188.17
242.19 K, Metastable crystal, x1 = 0.83	315.19
242.68 K, Crystal, x1 = 0.83	297.2
242.86 K, Crystal, x1 = 0.3	176.47
243.19 K, Crystal, x1 = 0.37	189.93
244.01 K, Crystal, x1 = 0.3	178.27
244.14 K, Metastable crystal, x1 = 0.83	317.28
244.48 K, Crystal, x1 = 0.37	191.7
244.87 K, Crystal, x1 = 0.83	300.59
245.15 K, Crystal, x1 = 0.3	179.96
245.76 K, Crystal, x1 = 0.37	193.72
246.08 K, Metastable crystal, x1 = 0.83	319.62
